Source: patent US20250275993A1, “GLYCOSYLATION INHIBITORS AS THERAPEUTICS FOR STROKE” (The Regents of the University of California, priority 2022, published 2025)

Tests used:
[1] = test system: bovine retinal microvascular endothelial cells (BREC); assay: BREC proliferation assay; format: cell-based; details: bovine retinal EC
Procedure: Proliferation assays with BCECs and BRECs were performed. Log-phase growing BCECs or BRECs (passage <10) were trypsinized, re-suspended and seeded in 96-well plates (no coating) in low-glucose DMEM supplemented with 10% bovine calf serum, 2 mM glutamine, and antibiotics (growth medium), at a density of 1200-1500 cells per well in 200 μl volume. All reagents were added at the indicated final concentrations. After 3-6 days, cells were incubated with AlamarBlue for 4 hrs. Fluorescence was measured at 530 nm excitation wavelength and 590 nm emission wavelength. The experiments were repeated at least three times. To create a hypoxic condition, cells were placed in a hypoxia incubator with a mixture of gas consisting of 1% O2, 5% CO2 and 94% N2. On each 96-well plate, untreated and VEGF-treated (10/ng/ml) wells were included to monitor plate-to-plate variations. 20% methanol or 0.05% DMSO served as negative controls. […] Human RMVECs and human adult DMVECs were split into Gelatin-coated 96 wells (2000 cells per well) in low glucose DMEM containing 10% FBS. 1200 cells/well was set up for proliferation assay in low glucose media containing 0.5% FBS. Data was collected at day 4 or 5. HUVEC (p7-10) were grown on gelatin-coated plate until it reached 70-80% confluency.

[2] = test system: VEGF, VEGFR2 and GLUT1 & 4; assay: Gene expression analysis by real-time Q PCR in BCECs; format: cell-based, bovine; details: various concentrations of ManN; 4 hours (gene) or 24 hours (protein)
Procedure: RNA was prepared using the RNeasy Mini Kit (Qiagen). Fifty ng of total RNA per reaction was used for the real-time PCR (Taqman) analysis. Reactions were set up in MicroAmp Fast Optical 96-well reaction plate, seal with MicroAmp optical Adhesion film and run on ViiA7 Real time PCR system (Applied Biosystems) and the absolute quantification with standard curve was used with Sequence Detection System (SDS) software. The expression level of each gene was further quantified relative to the housekeeping gene RPL19 in the same sample. Taqman primers and probe mixes were obtained from Thermo Fisher Scientific. Bovine VEGF-A (Bt03213282), bovine RPL19 (Bt03229687) and bovine specific VEGFR2 (Bt03258877), GLUT1 (Bt03215313) and GLUT4 (Bt03215316).

[3] = test system: BCECs; assay: Cellular uptake of ManN and conversion to ManN-6P (HPAEC-PAD); format: in vitro ADME, bovine
[4] = test system: A673; assay: A673 proliferation assay; format: cell-based; details: ManN
Procedure: (§1) Proliferation assays with fibroblasts were done in low-glucose DMEM containing 1% FBS, with or without 10 ng/ml bFGF, or 100 ng/ml human EGF and the assay was ended at day 3. ARPE-19 cells were gently lifted with 0.025% trypsin and plated in RtEGM media (Clonetics) containing 2% FBS, L-glutamine, human bFGF and GA-1000. Once cells were attached to plates, serum-free RtEGM media was used to maintain the cultures. For proliferation assays, 1500 human RPE cells were plated into 96-well plates in low-glucose DMEM containing 1% FBS. A673, U87MG, Calu6 and AML12 cells were grown until confluent and were then harvested and re-suspended in appropriate assay media. For proliferation assays, cells were plated at the density of 1000-2000 cells/well in low-glucose DMEM containing 5% FBS or otherwise stated. Bovine pituitary cells (pituitary folliculostellate cells) were isolated as previously described. For proliferation assays with human epidermal keratinocytes, human DMVECs and human dermal fibroblast cells, 1000 cells/well were plated in low-glucose DMEM containing 1% FBS with or without various growth factors. The assay was ended at day 3 for bovine pituitary cells and at day 4 for all the other cell types. […] Four days later, tumor cell growth was measured by the MTS assay (Promega, Madison, WI), a colorimetric assay that measures metabolic activity of viable cells. […]

[5] = test system: U87MG; assay: U87MG proliferation assay; format: cell-based; details: ManN
Procedure: as §1

[6] = ManN stability in wound fluid from S. aureus infected mice; format: in vitro ADME, mouse; details: up to 24 hours at 37° C.
Procedure: To test ManN stability in wound fluid collected from mice with skin infection as described below, 1.5 μl of 5% ManN solution was added to each 200 μl wound fluid which was first diluted 1:1 (v/v) with PBS. At each time point, samples were taken from 37° C. incubator and stored at −80° C. Plasma proteins were precipitated by adding ice cold acetonitrile to plasma: acetonitrile 1:3 (v/v) ratio. Samples were kept over ice for 1 hr and then centrifuged at 12000 g for 10 min at 7° C. to form a pellet. Supernatants were transferred to other tubed, dried down on a Speed Vac and then reconstituted in UltraPure distilled water and filtered through pre-washed Nanosep 3K Omega filters (Pall Corporation). The filtrate was dried down on Speed Vac. The dry samples were dissolved in 100 μl of water and 2 μl plasma or wound fluid sample was subjected to HPLC analysis. Neutral and amino sugars were separated on a Dionex CarboPac PAI column 4 mm×250 mm with 4 mm×50 mm guard column. An isocratic gradient of 19 mM sodium hydroxide with 0.95 mM sodium acetate was used at a flow rate of 1 ml/min with 20 min run. Data was collected using the Dionex ICS-3000 HPLC system with pulsed amperometric detector using standard Quad waveform. ManN was identified and quantified by comparison with monosaccharide standard using Thermo Scientific Chromeleon software. No ManN samples served as negative controls. […]

In the case of `N[C@H](C=O)[C@@H](O)[C@H](O)[C@H](O)CO` [ManN, 2-Amino-2-deoxy-D-mannose], the “additive effects in promoting BREC proliferation” value [1] is reported as “Additive effects”, the “transcription of VEGF, VEGFR2, GLUT1 & 4 and total VEGFR2 protein expression” value [2] is reported as “neither transcription of VEGF, VEGFR2 and GLUT] & 4 nor total VEGFR2 protein expression was significantly changed” and the “incorporation of ManN in N-glycans” value ([3]; BCECs) is reported as “No incorporation”. The “ManN detected in cell lysate” value ([3]; BCECs treated with 400 μM ManN for 2 hours) was 0.66 nmol in 1 mg cell lysate, the “growth of A673” value [4] was “did not promote growth” and the “growth of U87MG” value [5] was “did not promote growth”. For the same compound, the “loss of free ManN in wound fluid” value [6] was “No significant loss”.
